Assay results: EP0831877B1, “METABOLIC EFFECTS OF CERTAIN GLUTATHIONE ANALOGS” (TELIK, INC., priority 1995, dated 1996)
Values joined by “and” are separate entries in the source; they are usually repeats but may differ in a detail not shown here. Identical values can stand only once. Like-named read-outs stand apart in the source and are kept apart here. Marks after values point to notes of the source that are not given here.

How the values were obtained:
HT4-1 tumors = assay: potentiation of melphalan toxicity in vivo, implanted HT4-1 tumors; parameters: species or system Male scid mice; settings: group 5: 5 mg/kg melphalan + 60 mg/kg TER199, seven days; when control tumors reached 1500 mm^3
Procedure: Male scid mice were subcutaneously implanted with HT4-1 tumors from donor mice. HT4-1 is a subclone of HT-29, a human colon cancer. When tumors reached approximately 100 mm^3, the mice were randomized into six treatment groups and treated for seven days as follows: • 1. 5 mg/kg melphalan; • 2. 10 mg/kg ethacrynic acid; • 3. […] 5 mg/kg melphalan + 10 mg/kg ethacrynic acid; • 5.
The mice were monitored for weight changes and tumor volumes were determined by measurement with calipers. The tumor growth was monitored until the average tumor size reached 1500 mm^3 for all groups except melphalan with ethacrynic acid.
The results were computed in terms of the tumor volume in the drug treated mice as a percentage of control tumor volume (i.e., in the group administered vehicle alone). In group 1, administered melphalan alone, the tumors were approximately 75% of the volume of controls. […] For group 4 administered a combination of melphalan and ethacrynic acid, the volumes were approximately 35% of control. […] (The volume measurements were taken at the time control tumors reached 1500 mm^3.)

peripheral blood cells = assay: effect on peripheral blood counts in rats; settings: 90 mg/kg/day x 5, i.p.
Excerpt: Rats were divided into two groups and each group was bled on alternating days. Mean total leukocyte, absolute lymphocyte and absolute neutrophil counts increased over the study period.

bone marrow GM-CFU [1] = settings: TER199 90 mg/kg i.p. 1 hour prior to melphalan 10 mg/kg i.p.
[2] = test system: normal BDF1 mouse bone marrow erythroid (BFU-E) progenitor cells; assay: colony formation, mouse bone marrow BFU-E; format: cell-based
Procedure: (§1) The effects are dose-dependent, usually in the range of 1.0 to 10.0 µM, and in most cases for cells stimulated by GM-CSF, G-CSF, M-CSF, Flt3/Flk-2 and Steel factor (stem cell factor/c-kit ligand). Of particular interest was the finding that TER199 enhances colony formation stimulated by combinations of cytokines. Additionally, the enhancing effect is more pronounced in human than in murine bone marrow.

interleukin-1 (IL-1) = assay: stimulation of cytokine production in bone marrow stromal cell cultures; format: cell-based, human; settings: 100µM TER199 for one hour
Procedure: Human stromal cell cultures were established from freshly obtained human bone marrow as described by East, C.J. et al., Blood 5:1172 (1992). […] IL-1 levels were more than twice those of controls at both 24 and 48 hour time points.

[3] = in vitro half-life / metabolism in mouse blood; format: in vitro ADME
[4] = in vitro half-life in human blood; format: in vitro ADME
bone marrow GM-CFU [5] = test system: bone marrow GM-CFU
Procedure: Bone marrows were harvested 24 hours after cisplatin administration.
(§2) Bone marrows were harvested 24 hours after administration of the second drug.

[6] = test system: SKOV-3 an ovarian carcinoma; assay: standard clonogenic assay, potentiation of drug toxicity, SKOV-3; format: cell-based; settings: test dose not given
Procedure: (§3) ; SKOV-3 an ovarian carcinoma, and VLB, a vinblastine-resistant variant of SKOV-3. Four chemotherapeutic drugs, chlorambucil, adriamycin, mitomycin C and doxorubicin were used as the toxic agents. In these assays, the cells were seeded at 300 cells/well in 2 ml of medium in 6-well plates in the presence of the compounds used in the invention as the diethyl esters. […]. After incubation for 1-2 hours to permit cells to attach, varying doses of the chemotherapeutic agents were added. At least three replicate wells were plated for each test condition and the plates were incubated for two weeks. Colonies were fixed in 95% ethanol and stained with crystal violet for colony counting. IC50 values were determined for the chemotherapeutic agent in the presence or absence of the compound used in the invention and dose modification factors were calculated by dividing the IC50 value of drug without the compound by the IC50 value of the drug with the compound.

[7] = test system: normal BDF1 mouse bone marrow multipotential (CFU-GEMM) progenitor cells; assay: colony formation, mouse bone marrow CFU-GEMM; format: cell-based; settings: EPO + 50 ng/ml SLF
Procedure: as §1

[8] = test system: VLB, a vinblastine-resistant variant of SKOV-3; assay: standard clonogenic assay, potentiation of drug toxicity, VLB; format: cell-based
Procedure: as §3

bone marrow GM-CFU [9] = assay: carboplatin-induced GM-CFU suppression in mice; format: in vivo; settings: TER199 120mg/kg, i.p., carboplatin 90 mg/kg
Procedure: as §2

bone marrow GM-CFU [10] = assay: 5-fluorouracil-induced GM-CFU suppression in mice; settings: for GM-CFU: harvest 48 hours after 5-FU
Procedure: The control group was not treated with either drug. Bone marrows were harvested and GM-CFUs were determined 24 hours after the final injection.
Values are the mean ± SE of three mice per point.

[11] = TER199 150 mg/kg p.o. 24 hours after cisplatin 20 mg/kg i.p.

## CCOC(=O)[C@@H](N)CCC(=O)N[C@@H](CSCc1ccccc1)C(=O)N[C@@H](C(=O)OCC)c1ccccc1 [TER199, γE ethyl ester-C(Bz)-R-(-)-ϕG ethyl ester]
HT4-1 tumors
  tumor volume as a percentage of control tumor volume: approximately 55%
Peripheral blood cells
  deleterious effects on the animals: did not appear to have any deleterious effects
  levels of circulating white blood cells: twofold increase
Peripheral blood cells; exception: mean decrease in platelet count on day 9
  red blood cell or platelet counts: no significant change
Bone marrow GM-CFU [1]
  GM-CFU: 8 % of control value
[2]; EPO 1 U/ml, TER199 0.1 µM
  % change from control: 0%
  Colony number: 2±1 and 4±1
[2]; EPO 1 U/ml, TER199 1.0 µM
  Colony number: 2±1 and 3±1
[2]; EPO 1 U/ml, TER199 10 µM
  % change from control: 0%
  Colony number: 2±1 and 4±1
[2]; EPO + 50 ng/ml SLF, TER199 0.1 µM
  Colony number: 8±1 and 9±1
[2]; EPO + 50 ng/ml SLF, TER199 1.0 µM
  Colony number: 8±1 and 9±1
[2]; EPO + 50 ng/ml SLF, TER199 10 µM
  Colony number: 8±1 and 9±1
interleukin-1 (IL-1); 24 Hours
  IL-1 concentration: 323 pg/mL
  IL-1 concentration (% control): 283 % control
interleukin-1 (IL-1); 48 Hours
  IL-1 concentration: 245 pg/mL
  IL-1 concentration (% control): 253 % control
[3]
  half-life: < 1 min
[4]
  half-life: ~90 min
  half-life, comparison of the three compounds: approximately the same
Bone marrow GM-CFU [5]; TER199 60 mg/kg i.p. 24 hours before cisplatin 15 mg/kg i.p.
  GM-CFUs per femur: 62 % of control
Bone marrow GM-CFU [5]; [11]
  GM-CFU: 40%
  increase in GM-CFU versus cisplatin alone: 2.5 fold
Bone marrow GM-CFU [5]; TER199 150 mg/kg p.o. 24 hours before cisplatin 20 mg/kg i.p.
  GM-CFU: 52 % of control
[6]
  DMF for Adriamycin: 1.14
  DMF for Chlorambucil: 1.24
  DMF for Doxorubicin: 1.14
[7]; TER199 0.1 µM
  % change from control: 0%
  Colony number: 2±1
[7]; TER199 10 µM
  % change from control: 0%
  Colony number: 2±1
[8]; 5 µM TER199
  DMF for Mitomycin C: 0.82 (5 µM TER199)^c
[8]; TER199 at 25 µM
  DMF for Doxorubicin: 2.50
[8]; TER199 at 25 µM, TER183 dose not given
  DMF for Adriamycin: 2.50
Bone marrow GM-CFU [9]
  carboplatin-induced GM-CFU suppression (Figure 12, panel A): reduces carboplatin-induced GM-CFU suppression
Bone marrow GM-CFU [10]; 60 mg/kg TER199 IP 24 hours after 75 mg/kg 5-FU IP
  GM-CFU counts per femur: greater than control values
Bone marrow GM-CFU [10]; 60 mg/kg TER199 IP simultaneously with 75 mg/kg 5-FU IP
  number of GM-CFUs per femur compared with fluorouracil alone: fourfold increase
Bone marrow GM-CFU [10]; TER199 150 mg/kg p.o. 24 hours after 5-FU 75 mg/kg i.p.
  GM-CFU: 90 % of control
Bone marrow GM-CFU [10]; TER199 150 mg/kg p.o. 24 hours after 5-FU 150 mg/kg i.p.
  GM-CFU: 71 % of control
Bone marrow GM-CFU [10]; TER199 IP 24 hours after 5-FU
  GM-CFU by day 4 after 5-FU administration (Figure 9b): about twice that of control
Bone marrow GM-CFU [10]; TER199 i.p. 24 hours prior to 5-FU
  effect on GM-CFU (Figure 9c): essentially no effect
